Laboratory results taken from patent publication US20220153751A1, “BIFUNCTIONAL COMPOUNDS” (BioTheryX, Inc., priority 2018, published 2022).

How the values were obtained:
Format in all cases: cell-based
IL-2 = IL-2 fold-change assay, anti-CD3 stimulated PBMCs (Mesoscale); conditions: PBMC, PBMCs on anti-human CD3, 24 h, fold difference from the DMSO control
Method: For the IL-2 analysis, 96 well plates were precoated with 1 μg/mL anti-human CD3 antibody (OK3, eBioscience Inc., San Diego, Calif.). After washing with PBS, the indicated compound was added (50 μL/well) followed by PBMCs diluted at 3-4 million cells/mL (150 μL/well). Plates were incubated for 24 h and the supernatants collected for Mesoscale IL-2 analysis. IL-2 activity is measured as fold difference from the DMSO control.
In Table 6, the % inhibition values are reported as “A”, “B”, “C”, or “D”. “A” represents a % inhibition value of less than 50% (value <50%). “B” represents a % inhibition value of equal to or more than 50% and less than 70% (50%≤value<70%). “C” represents a % inhibition value of equal to or more than 70% and less than 90% (70%≤value<90%). “D” represents a % inhibition value of equal or more than 90% (value ≥90%). In Table 7, the fold-change values are reported as “A”, “B”, “C”, or “D”. “A” represents a fold-change value of equal to or less than 0.1 (value ≤0.1). “B” represents a fold-change value of more than 0.1 and equal to or less than 0.5 (0.1<value≤0.5). “C” represents a fold-change value of more than 0.5 and equal to or less than 1 (0.5<value≤1). “D” represents a fold-change value of more than 1 (value >1).

IL-1β = IL-1β inhibition assay, LPS-induced PBMCs / CD14+ monocytes (Meso Scale); conditions: 1 h pretreatment, 100 ng/mL LPS 18-24 h
How it was run: (§1)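 Thawed human PBMCs or CD14+ mobilized peripheral blood monocytes, 200,000 cells/well in RPMI-1640/10% FBS, pretreated with compound or DMSO 1 h, then stimulated with 100 ng/mL LPS for 18-24 h. Supernatant cytokine measured by Meso Scale; % inhibition binned A–D (<50%, 50–70%, 70–90%, ≥90%), fold-change binned A–D (≤0.1, ≤0.5, ≤1, >1).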

IL-6 = IL-6 inhibition assay, LPS-induced PBMCs / CD14+ monocytes (Meso Scale); conditions: 1 h pretreatment, 100 ng/mL LPS 18-24 h
How it was run: as §1

IKAROS = molecular target: T1, IKAROS (Homo sapiens, UniProt Q13422+Q96SW2); assay: IKAROS degradation assay (Western blot, MV-4-11 cells); conditions: MV4-11, 6-8 h
T1 construct: endogenous in cells; host or cells: MV-4-11
T1 sequence (Q13422 whole entry): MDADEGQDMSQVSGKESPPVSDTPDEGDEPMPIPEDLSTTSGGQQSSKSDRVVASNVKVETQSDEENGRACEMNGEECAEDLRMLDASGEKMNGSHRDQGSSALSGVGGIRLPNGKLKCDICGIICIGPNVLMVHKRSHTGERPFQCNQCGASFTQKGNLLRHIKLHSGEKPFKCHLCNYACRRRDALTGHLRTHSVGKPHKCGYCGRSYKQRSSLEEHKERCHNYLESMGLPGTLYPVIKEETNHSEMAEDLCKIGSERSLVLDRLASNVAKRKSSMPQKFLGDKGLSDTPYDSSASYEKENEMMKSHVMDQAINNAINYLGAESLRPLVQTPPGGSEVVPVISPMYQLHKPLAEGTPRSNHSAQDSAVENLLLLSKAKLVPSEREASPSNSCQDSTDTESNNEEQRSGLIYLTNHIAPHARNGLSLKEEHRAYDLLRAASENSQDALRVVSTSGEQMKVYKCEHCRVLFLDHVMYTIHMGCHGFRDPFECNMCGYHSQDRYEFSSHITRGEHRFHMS
T1 sequence (Q96SW2 whole entry): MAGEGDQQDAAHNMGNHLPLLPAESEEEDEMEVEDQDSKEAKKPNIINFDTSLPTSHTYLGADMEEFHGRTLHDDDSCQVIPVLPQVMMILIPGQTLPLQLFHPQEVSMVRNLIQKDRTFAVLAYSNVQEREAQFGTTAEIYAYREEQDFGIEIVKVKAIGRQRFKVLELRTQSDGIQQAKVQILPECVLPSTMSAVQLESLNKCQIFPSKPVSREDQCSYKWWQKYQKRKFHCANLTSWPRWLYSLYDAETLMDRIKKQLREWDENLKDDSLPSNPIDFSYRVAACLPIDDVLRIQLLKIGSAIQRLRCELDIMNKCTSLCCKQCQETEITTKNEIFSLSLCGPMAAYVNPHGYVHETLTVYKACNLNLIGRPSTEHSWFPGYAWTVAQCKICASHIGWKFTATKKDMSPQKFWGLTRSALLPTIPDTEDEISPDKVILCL
T1 sequence (Q16531 whole entry partner): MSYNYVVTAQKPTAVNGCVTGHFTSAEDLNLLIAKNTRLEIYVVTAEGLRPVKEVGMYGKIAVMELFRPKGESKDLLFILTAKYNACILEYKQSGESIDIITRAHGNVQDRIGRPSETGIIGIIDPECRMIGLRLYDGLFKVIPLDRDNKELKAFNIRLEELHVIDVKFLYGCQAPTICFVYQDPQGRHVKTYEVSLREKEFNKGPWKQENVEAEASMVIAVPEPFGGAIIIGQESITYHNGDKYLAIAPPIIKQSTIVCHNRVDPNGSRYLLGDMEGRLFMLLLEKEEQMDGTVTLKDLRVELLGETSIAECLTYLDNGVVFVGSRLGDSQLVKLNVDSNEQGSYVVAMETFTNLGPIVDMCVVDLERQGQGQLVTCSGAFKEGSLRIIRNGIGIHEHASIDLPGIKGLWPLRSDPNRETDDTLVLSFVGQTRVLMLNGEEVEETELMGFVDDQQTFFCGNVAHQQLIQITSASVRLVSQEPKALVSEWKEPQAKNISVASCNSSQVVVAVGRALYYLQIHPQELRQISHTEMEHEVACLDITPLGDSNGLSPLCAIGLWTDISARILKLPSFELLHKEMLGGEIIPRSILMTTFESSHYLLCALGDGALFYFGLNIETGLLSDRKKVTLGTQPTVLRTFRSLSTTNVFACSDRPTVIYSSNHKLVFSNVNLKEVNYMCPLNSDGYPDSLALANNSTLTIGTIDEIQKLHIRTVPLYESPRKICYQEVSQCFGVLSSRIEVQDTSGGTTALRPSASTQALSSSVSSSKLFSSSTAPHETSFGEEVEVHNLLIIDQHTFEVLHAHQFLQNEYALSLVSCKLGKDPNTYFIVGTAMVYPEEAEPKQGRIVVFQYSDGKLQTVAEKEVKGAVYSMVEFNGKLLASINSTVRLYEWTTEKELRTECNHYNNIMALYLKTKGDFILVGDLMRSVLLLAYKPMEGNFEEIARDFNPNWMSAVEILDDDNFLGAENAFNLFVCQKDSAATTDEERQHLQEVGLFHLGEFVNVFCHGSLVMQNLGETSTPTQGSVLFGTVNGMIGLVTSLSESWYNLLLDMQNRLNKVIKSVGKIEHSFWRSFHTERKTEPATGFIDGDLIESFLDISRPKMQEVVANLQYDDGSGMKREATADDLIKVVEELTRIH
How it was run: (§2)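 MV-4-11 cells (~10^6 cells/mL, RPMI 1640 with 10% FBS) were treated with compound or DMSO for 6-8 h. RIPA whole-cell lysates were run on SDS-PAGE, immunoblotted and detected with IRDye secondaries. % degradation is binned (<25%, 25–50%, 50–75%, ≥75%); CDK9 and CDK16 were tested at two concentrations.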

TNF-α = TNF-α inhibition assay, LPS-induced PBMCs / CD14+ monocytes (Meso Scale); conditions: 1 h pretreatment, 100 ng/mL LPS 18-24 h
How it was run: as §1

MOLM-13 cells = assay: MOLM-13 cell viability assay (CellTiter-Glo); conditions: Homo sapiens, MOLM-13, 72 h, 3 days, read-out: MOLM-13 Cell Viability % DMSO at 1 μM
How it was run: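 MOLM-13 cells at 2500 cells/well were exposed to compound for 3 days at 37 °C. Viability was read by CellTiter-Glo luminescence and expressed as % of DMSO control, binned A (<50%), B (50–<70%), C (70–<90%) or D (≥90%).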

CDK9 = molecular target: T2, CDK9 (Homo sapiens, UniProt P50750); assay: CDK9 degradation assay (Western blot, MV-4-11 cells); conditions: 6-8 h; for Dmax at 0.1 µM: MV4-11, 0.1 μM; for Dmax at 1 µM: MV4-11, 1 μM
T2 construct: Whole cell extracts were prepared using RIPA buffer; endogenous in cells; host or cells: MV-4-11
T2 sequence (P50750 whole entry): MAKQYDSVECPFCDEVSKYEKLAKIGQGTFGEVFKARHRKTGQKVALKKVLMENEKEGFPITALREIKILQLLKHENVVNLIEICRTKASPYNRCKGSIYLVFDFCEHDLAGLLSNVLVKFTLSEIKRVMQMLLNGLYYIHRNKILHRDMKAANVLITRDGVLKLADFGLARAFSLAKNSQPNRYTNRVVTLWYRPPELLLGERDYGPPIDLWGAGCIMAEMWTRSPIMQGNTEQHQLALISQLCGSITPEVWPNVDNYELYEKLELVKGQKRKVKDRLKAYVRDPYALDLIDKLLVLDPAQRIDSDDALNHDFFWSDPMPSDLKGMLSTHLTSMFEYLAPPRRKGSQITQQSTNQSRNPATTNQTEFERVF
How it was run: as §2

CDK16 = molecular target: T3, CDK16 (Homo sapiens, UniProt Q00536); assay: CDK16 degradation assay (Western blot, MV-4-11 cells); conditions: 6-8 h; for Dmax at 0.1 µM: MV4-11, 0.1 μM; for Dmax at 1 µM: MV4-11, 1 μM
T3 construct: Whole cell extracts were prepared using RIPA buffer; endogenous in cells; host or cells: MV-4-11
T3 sequence (Q00536 whole entry): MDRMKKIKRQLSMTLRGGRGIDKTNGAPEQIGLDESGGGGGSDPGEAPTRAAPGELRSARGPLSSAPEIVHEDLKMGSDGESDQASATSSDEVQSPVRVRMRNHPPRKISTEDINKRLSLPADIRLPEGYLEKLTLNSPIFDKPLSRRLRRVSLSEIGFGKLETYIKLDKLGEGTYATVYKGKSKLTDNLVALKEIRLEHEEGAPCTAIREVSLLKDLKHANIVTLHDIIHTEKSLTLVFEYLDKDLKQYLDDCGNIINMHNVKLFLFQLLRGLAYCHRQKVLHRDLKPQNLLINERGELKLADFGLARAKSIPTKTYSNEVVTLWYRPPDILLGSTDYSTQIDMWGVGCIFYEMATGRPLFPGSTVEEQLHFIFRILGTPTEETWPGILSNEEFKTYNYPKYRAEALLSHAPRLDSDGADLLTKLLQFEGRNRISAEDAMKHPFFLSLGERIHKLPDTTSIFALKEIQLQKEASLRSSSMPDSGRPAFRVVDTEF
How it was run: as §2

GSPT1 = molecular target: T4, GSPT1 (Homo sapiens, UniProt P15170+Q96SW2); assay: GSPT1 degradation assay (Western blot, MV-4-11 cells); conditions: MV4-11, 6-8 h
T4 construct: Whole cell extracts were prepared using RIPA buffer; endogenous in cells; host or cells: MV-4-11
T4 sequence (P15170 whole entry): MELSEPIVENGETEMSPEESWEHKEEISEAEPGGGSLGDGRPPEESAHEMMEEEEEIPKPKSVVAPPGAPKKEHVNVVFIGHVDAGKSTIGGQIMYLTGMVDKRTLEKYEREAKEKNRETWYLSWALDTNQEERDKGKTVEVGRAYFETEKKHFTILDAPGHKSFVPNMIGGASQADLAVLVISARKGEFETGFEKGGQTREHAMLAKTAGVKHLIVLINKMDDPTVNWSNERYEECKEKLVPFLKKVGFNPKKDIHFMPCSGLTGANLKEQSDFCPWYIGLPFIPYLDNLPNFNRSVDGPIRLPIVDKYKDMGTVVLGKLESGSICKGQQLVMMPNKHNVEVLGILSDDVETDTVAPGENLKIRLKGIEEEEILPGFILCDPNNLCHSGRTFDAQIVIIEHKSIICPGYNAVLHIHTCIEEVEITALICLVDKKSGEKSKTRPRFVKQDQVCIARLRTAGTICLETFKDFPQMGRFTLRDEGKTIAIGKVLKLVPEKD
T4 sequence (Q96SW2 whole entry): as the sequence (Q96SW2 whole entry) above
T4 sequence (Q16531 whole entry partner): as the sequence (Q16531 whole entry partner) above
How it was run: as §2

Structure (SMILES): CC(C)(C)c1cnc(CSc2cnc(NC(=O)C3CCN(CC(=O)NCCOCCNC(=O)NCc4scc5c4CN(C4CCC(=O)NC4=O)C5=O)CC3)s2)o1 (stereo not shown) [Compound 2, 3-{6-Oxo-2-[(3-{2-[2-(2-{4-[(5-{[5-(tert-butyl)-1,3-oxazol-2-yl]methylthio}-1,3-thiazol-2-ylamino)carbonyl]-1-piperidyl}acetylamino)ethoxy]ethyl}ureido)methyl]-3-thia-7-azabicyclo[3.3.0]octa-1,4-dien-7-yl}-2,6-piperidinedione]
- fold induction at 1 µM (IL-2): 0.1 to 0.5
- inhibition at 1 µM (IL-1β): > 90%
- inhibition at 1 µM (IL-6): > 90%
- Dmax at 1 µM (IKAROS): 25 to 50%
- inhibition at 1 µM (TNF-α): 70 to 90%
- viability at 1 µM (MOLM-13 cells): > 90%

Structure (SMILES): CC(C)(C)c1cnc(CSc2cnc(NC(=O)C3CCN(CC(=O)NCCOCCOCCNC(=O)NCc4cc5c(s4)C(=O)N(C4CCC(=O)NC4=O)C5)CC3)s2)o1 (stereo not shown) [Compound 13, N-(5-(((5-(tert-butyl)oxazol-2-yl)methyl)thio)thiazol-2-yl)-1-(1-(5-(2,6-dioxopiperidin-3-yl)-6-oxo-5,6-dihydro-4H-thieno[2,3-c]pyrrol-2-yl)-3,14-dioxo-7,10-dioxa-2,4,13-triazapentadecan-15-yl)piperidine-4-carboxamide]
- Dmax at 0.1 µM (CDK9): 50 to 75%
- Dmax at 1 µM (CDK9): ≥ 75%
- fold induction at 1 µM (IL-2): ≤ 0.1
- inhibition at 1 µM (IL-1β): > 90%
- Dmax at 0.1 µM (CDK16): < 25%
- Dmax at 1 µM (CDK16): < 25%
- inhibition at 1 µM (IL-6): > 90%
- inhibition at 1 µM (TNF-α): > 90%
- viability at 1 µM (MOLM-13 cells): > 90%

Structure (SMILES): Cn1ncc(-c2nc(N[C@H]3CC[C@H](NCCCCCCNC(=O)NCc4cc5c(s4)C(=O)N(C4CCC(=O)NC4=O)C5)CC3)ncc2F)c1CC1CC1 (stereo partly shown) [Compound 21, 1-(6-(((1r,4r)-4-((4-(5-(cyclopropylmethyl)-1-methyl-1H-pyrazol-4-yl)-5-fluoropyrimidin-2-yl)amino)cyclohexyl)amino)hexyl)-3-((5-(2,6-dioxopiperidin-3-yl)-6-oxo-5,6-dihydro-4H-thieno[2,3-c]pyrrol-2-yl)methyl)urea]
- fold induction at 1 µM (IL-2): 0.1 to 0.5
- inhibition at 1 µM (IL-1β): < 50%
- inhibition at 1 µM (IL-6): < 50%
- Dmax at 1 µM (IKAROS): ≥ 75%
- inhibition at 1 µM (TNF-α): < 50%
- viability at 1 µM (MOLM-13 cells): > 90%

Structure (SMILES): CC(C)(C)c1cnc(CSc2cnc(NC(=O)C3CCN(CC(=O)NCCOCCOCCNCC(=O)NCc4scc5c4CN(C4CCC(=O)NC4=O)C5=O)CC3)s2)o1 (stereo not shown) [Compound 26, N-(5-(((5-(tert-butyl)oxazol-2-yl)methyl)thio)thiazol-2-yl)-1-(1-(5-(2,6-dioxopiperidin-3-yl)-4-oxo-5,6-dihydro-4H-thieno[3,4-c]pyrrol-1-yl)-3,15-dioxo-8,11-dioxa-2,5,14-triazahexadecan-16-yl)piperidine-4-carboxamide]
- Dmax at 0.1 µM (CDK9): 50 to 75%
- Dmax at 1 µM (CDK9): ≥ 75%
- fold induction at 1 µM (IL-2): ≤ 0.1
- inhibition at 1 µM (IL-1β): > 90%
- Dmax at 0.1 µM (CDK16): 25 to 50%
- Dmax at 1 µM (CDK16): < 25%
- inhibition at 1 µM (IL-6): > 90%
- Dmax at 1 µM (IKAROS): 50 to 75%
- inhibition at 1 µM (TNF-α): 70 to 90%
- viability at 1 µM (MOLM-13 cells): > 90%

Structure (SMILES): CC(C)(C)c1cnc(CSc2cnc(NC(=O)C3CCN(CC(=O)NCCOCCOCCOCCNCC(=O)NCc4cc5c(s4)C(=O)N(C4CCC(=O)NC4=O)C5)CC3)s2)o1 (stereo not shown) [Compound 42, N-(5-(((5-(tert-butyl)oxazol-2-yl)methyl)thio)thiazol-2-yl)-1-(1-(5-(2,6-dioxopiperidin-3-yl)-6-oxo-5,6-dihydro-4H-thieno[2,3-c]pyrrol-2-yl)-3,18-dioxo-8,11,14-trioxa-2,5,17-triazanonadecan-19-yl)piperidine-4-carboxamide]
- Dmax at 0.1 µM (CDK9): 25 to 50%
- Dmax at 1 µM (CDK9): ≥ 75%
- fold induction at 1 µM (IL-2): 0.1 to 0.5
- inhibition at 1 µM (IL-1β): > 90%
- Dmax at 0.1 µM (CDK16): < 25%
- Dmax at 1 µM (CDK16): < 25%
- inhibition at 1 µM (IL-6): > 90%
- Dmax at 1 µM (IKAROS): 25 to 50%
- inhibition at 1 µM (TNF-α): < 50%
- viability at 1 µM (MOLM-13 cells): 70 to 90%

Structure (SMILES): Cn1ncc(-c2nc(N[C@H]3CC[C@H](NCC(=O)NCCOCCOCCOCCNC(=O)NCc4cc5c(s4)C(=O)N(C4CCC(=O)NC4=O)C5)CC3)ncc2Cl)c1CC1CC1 (stereo partly shown) [Compound 46, 2-(((1r,4r)-4-((5-chloro-4-(5-(cyclopropylmethyl)-1-methyl-1H-pyrazol-4-yl)pyrimidin-2-yl)amino)cyclohexyl)amino)-N-(1-(5-(2,6-dioxopiperidin-3-yl)-6-oxo-5,6-dihydro-4H-thieno[2,3-c]pyrrol-2-yl)-3-oxo-7,10,13-trioxa-2,4-diazapentadecan-15-yl)acetamide]
- fold induction at 1 µM (IL-2): 0.1 to 0.5
- inhibition at 1 µM (IL-1β): 70 to 90%
- inhibition at 1 µM (IL-6): 70 to 90%
- inhibition at 1 µM (TNF-α): 50 to 70%
- viability at 1 µM (MOLM-13 cells): > 90%

Structure (SMILES): CC(C)(C)c1cnc(CSc2cnc(NC(=O)C3CCN(CCCCCCCNCC(=O)NCc4cc5c(s4)C(=O)N(C4CCC(=O)NC4=O)C5)CC3)s2)o1 (stereo not shown) [Compound 57, N-(5-(((5-(tert-butyl)oxazol-2-yl)methyl)thio)thiazol-2-yl)-1-(7-((2-(((5-(2,6-dioxopiperidin-3-yl)-6-oxo-5,6-dihydro-4H-thieno[2,3-c]pyrrol-2-yl)methyl)amino)-2-oxoethyl)amino)heptyl)piperidine-4-carboxamide]
- fold induction at 1 µM (IL-2): ≤ 0.1
- inhibition at 1 µM (IL-1β): > 90%
- inhibition at 1 µM (IL-6): > 90%
- Dmax at 1 µM (IKAROS): 25 to 50%
- inhibition at 1 µM (TNF-α): > 90%
- viability at 1 µM (MOLM-13 cells): > 90%

Structure (SMILES): Cn1ncc(-c2cc(N[C@H]3CC[C@H](NCCCCCCCCNC(=O)NCc4cc5c(s4)C(=O)N(C4CCC(=O)NC4=O)C5)CC3)ncc2F)c1CC1CC1 (stereo partly shown) [Compound 59, 1-(8-(((1r,4r)-4-((4-(5-(cyclopropylmethyl)-1-methyl-1H-pyrazol-4-yl)-5-fluoropyridin-2-yl)amino)cyclohexyl)amino)octyl)-3-((5-(2,6-dioxopiperidin-3-yl)-6-oxo-5,6-dihydro-4H-thieno[2,3-c]pyrrol-2-yl)methyl)urea]
- fold induction at 1 µM (IL-2): 0.5 to 1
- inhibition at 1 µM (IL-1β): 70 to 90%
- inhibition at 1 µM (IL-6): 70 to 90%
- inhibition at 1 µM (TNF-α): < 50%
- viability at 1 µM (MOLM-13 cells): > 90%

Structure (SMILES): Cc1nc2c(CNC(=O)NCCCCCCCCN[C@H]3CC[C@H](Nc4ncc(Cl)c(-c5cnn(C)c5CC5CC5)n4)CC3)scc2c(=O)n1C1CCC(=O)NC1=O (stereo partly shown) [Compound 61, 1-(8-(((1r,4r)-4-((5-chloro-4-(5-(cyclopropylmethyl)-1-methyl-1H-pyrazol-4-yl)pyrimidin-2-yl)amino)cyclohexyl)amino)octyl)-3-((3-(2,6-dioxopiperidin-3-yl)-2-methyl-4-oxo-3,4-dihydrothieno[3,4-d]pyrimidin-7-yl)methyl)urea]
- fold induction at 1 µM (IL-2): 0.1 to 0.5
- inhibition at 1 µM (IL-1β): > 90%
- inhibition at 1 µM (IL-6): > 90%
- Dmax at 1 µM (IKAROS): 25 to 50%
- inhibition at 1 µM (TNF-α): > 90%
- viability at 1 µM (MOLM-13 cells): > 90%

Structure (SMILES): Cn1ncc(-c2cc(N[C@H]3CC[C@H](NCC(=O)NCCNCC(=O)NCc4cc5c(s4)C(=O)N(C4CCC(=O)NC4=O)C5)CC3)ncc2F)c1CC1CC1 (stereo partly shown) [Compound 63, 2-(((1r,4r)-4-((4-(5-(cyclopropylmethyl)-1-methyl-1H-pyrazol-4-yl)-5-fluoropyridin-2-yl)amino)cyclohexyl)amino)-N-(2-((2-(((5-(2,6-dioxopiperidin-3-yl)-6-oxo-5,6-dihydro-4H-thieno[2,3-c]pyrrol-2-yl)methyl)amino)-2-oxoethyl)amino)ethyl)acetamide]
- fold induction at 1 µM (IL-2): > 1
- Dmax at 1 µM (GSPT1): < 25%
- Dmax at 1 µM (IKAROS): 25 to 50%
- viability at 1 µM (MOLM-13 cells): > 90%
